Source: patent US7416840B2, “Replication of hepatitis C virus in non-hepatic epithelial and mouse hepatic cells” (priority 2002, dated 2008)
“Also recorded” adds a separate entry of the source. Read-outs that look alike come from different tables or passages of the source.

How the values were obtained:
[1] = tested on: IFN-α response against the HCV replicon; type: cell-based, human; conditions: for viral RNA levels versus cells treated with IFN-α alone: 5 μM lactacystin or 1 μM epoxomicin 1 h before IFN-α for 6 h, both time points; for IFN response against HCV when inhibitor is added after induction: IFN-α for 10 h, then inhibitor for 12 h; for reduction of HCV RNA levels by IFN-α in the presence of proteasome inhibitor: inhibitor 1 h before IFN-α 100 IU/ml for 6 h, then 12 h
HCV subgenomic replicons [2] = type: cell-based
HCV subgenomic replicons [3] = type: cell-based; remark: listed apart in the source
Mx-1 gene = type: cell-based, human; conditions: GS4.1 cells, with IFN-α
SL1 cells = type: cell-based, Homo sapiens (human)
Kunjin virus replicons = type: cell-based; conditions: KUNCD20 cells, 0.01 to 160 IU of IFN-α/ml, 72 h
HCV = HCV genotypes 2 and 3; cited from earlier work
KUNCD20 cells = test: Cell death in IFN-α-treated KUNCD20 cells, light microscopy or annexin V staining; type: cell-based, Homo sapiens (human)
Excerpt: To address this problem, the IFN response against HCV in SL1 cells was compared with that against the flavivirus Kunjin virus in HeLa cells. For this purpose a pool of HeLa cells, KUNCD20, expressing Kunjin virus subgenomic replicons lacking the structural genes, similar to the HCV subgenomic replicons was established (Khromykh, A. A., and E. G. Westaway. 1997. J. Virol. 71:1497-1505). The Kunjin virus RNA levels in these cells were approximately fivefold higher than those observed with HCV in SL1 cells. […] Importantly, cell death in IFN-α-treated KUNCD20 cells was not detected either by light microscopy or annexin V staining (results not shown).

IFN-β gene = type: cell-based, human; conditions: for expression of IFN-β: IFN-α alone
eIF-2α = type: cell-based, human; conditions: Huh7, GS4.1, HeLa, SL1 cells; 100 IU of IFN-α/ml 12 h; poly(I:C) transfection 3 h

Nc1ncc2[nH]cnc2n1 [2-AP, 2-aminopurine]
inhibition of the IFN-α response against HCV replicon ([1]; GS4.1 (Huh7) cells): did not block the IFN response against HCV; also recorded: no measurable effect on the IFN response against the HCV replicon | apoptosis (HeLa cells; HeLa cells, treatment for more than 12 h): induced apoptosis

C[C@@]1(O)[C@H](O)[C@@H](CO)O[C@H]1n1cnc2c(N)ncnc21 [2CMA, 2′-C-methyladenosine]
viral RNA (vRNA), anti-HCV activity (HCV subgenomic replicons [2]; SL1 (HeLa) cells, 10 μM, harvested at 6, 12, 24, 48, 72 hours): effectively inhibits HCV | viral RNA (vRNA), anti-HCV activity (HCV subgenomic replicons [3]; GS4.1 (Huh7) cells, 10 μM, harvested at 6, 12, 24, 48, 72 hours): effectively inhibits HCV

Nc1nc(=O)n([C@@H]2O[C@H](CO)[C@@H](O)[C@H]2O)cc1O [5-OH-cytidine]
HCV RNA band intensity, antiviral activity (HCV subgenomic replicons [2]; SL1 (HeLa) cells, indicated amounts, 72 hours): effectively inhibits HCV replication | HCV RNA band intensity, antiviral activity (HCV subgenomic replicons [3]; GS4.1 (Huh7) cells, indicated amounts, 72 hours): effectively inhibits HCV replication

C[C@@H]1C[C@@H]([C@H](O)CC2CC(=O)NC(=O)C2)C(=O)[C@@H](C)C1 [Cycloheximide]
inhibition of the IFN-α response against HCV replicon ([1]; GS4.1 (Huh7) cells): decline of viral RNA levels was reduced

CC[C@H](C)[C@H](NC(=O)[C@H]([C@@H](C)CC)N(C)C(C)=O)C(=O)N[C@H](C(=O)N[C@@H](CC(C)C)C(=O)[C@@]1(C)CO1)[C@@H](C)O [Epoxomicin]
viral RNA levels versus cells treated with IFN-α alone ([1]; GS4.1 cells): significantly higher | IFN response against HCV when inhibitor is added after induction ([1]; GS4.1 cells): the IFN response against HCV remained effective | reduction of HCV RNA levels by IFN-α in the presence of proteasome inhibitor ([1]; GS4.1 cells): 30% | induction of IFN-induced Mx-1 (Mx-A) mRNA (Mx-1 gene): did not inhibit induction of Mx-A

O=c1c(-c2ccc(O)cc2)coc2cc(O)cc(O)c12 [Genistein, genistein]
inhibition of the IFN-α response against HCV replicon ([1]; GS4.1 (Huh7) cells): antagonized the IFN-α response against the HCV replicon | inhibition of the IFN response against HCV at increased drug concentration ([1]; GS4.1 cells, concentration raised from 100 to 300 μM): complete inhibition of the IFN response against HCV | induction of IFN-induced Mx-1 (Mx-A) mRNA (Mx-1 gene): suppressed the induction of the IFN-induced Mx-1 gene

CC(=O)N[C@@H](CSC(=O)[C@]1([C@@H](O)C(C)C)NC(=O)[C@H](C)[C@@H]1O)C(=O)O [Lactacystin, lactacystin]
viral RNA levels versus cells treated with IFN-α alone ([1]; GS4.1 cells): significantly higher | IFN response against HCV when inhibitor is added after induction ([1]; GS4.1 cells): the IFN response against HCV remained effective | reduction of HCV RNA levels by IFN-α in the presence of proteasome inhibitor ([1]; GS4.1 cells): 30% | induction of IFN-induced Mx-1 (Mx-A) mRNA (Mx-1 gene): did not inhibit induction of Mx-A | HCV RNA levels, drug alone (HCV subgenomic replicons [3]; GS4.1 cells, higher doses, without IFN-α): slight reduction of HCV RNA levels

C[S+]([O-])c1ccc(-c2nc(-c3ccncc3)c(-c3ccc(F)cc3)[nH]2)cc1 (stereo not shown) [SB 203580]
inhibition of the IFN-α response against HCV replicon ([1]; GS4.1 (Huh7) cells): did not inhibit the IFN response at detectable levels

O=C([O-])c1ccccc1O.[Na+] [Sodium salicylate, sodium salicylate]
inhibition of the IFN-α response against HCV replicon [1]: did not inhibit the IFN response at detectable levels

IFN-α
cell death (SL1 cells; SL1 and other HeLa derived cell lines, more than 30 IU of IFN-α/ml, between 6 and 20 h post treatment): induced cell death in a significant fraction of cells | fraction of apoptotic cells (annexin V-FITC positive) (SL1 cells; SL1 cells, 100 IU of IFN-α/ml, 24 h, flow cytometry): more than 30% | Kunjin virus replicon RNA, inhibition of viral replication (Kunjin virus replicons): only slightly inhibited viral replication | IC50 of IFN-α (reduction of virus replication) (HCV subgenomic replicons [2]; HeLa cell lines such as SL1, 72 h): ~0.1 IU/ml | fold lower IC50 in HeLa cell lines than in Huh7-derived cell lines (HCV subgenomic replicons [2]; HeLa vs Huh7-derived cell lines): approximately 10 fold | apoptosis after IFN-α treatment (HeLa cells; normal HeLa cells): did not undergo apoptosis | response to IFN-α therapy (HCV): ≤ 80% | drop of HCV RNA levels (HCV subgenomic replicons [3]; GS4.1 cells, IFN-α 100 IU/ml for 6 h, within 18 h): 70% | cell death (KUNCD20 cells): not detected | expression of IFN-β (IFN-β gene; HeLa cells): not in HeLa cells | expression of IFN-β (IFN-β gene; SL1 cells): could be induced | eIF-2α-P levels (eIF-2α): did not induce eIF-2α-P levels

ZVAD-fluoromethyl ketone [ZVAD-FMK]
prevention of IFN-α-induced cell death (apoptosis) (SL1 cells; SL1 cells, 100 IU of IFN-α/ml with 20 μM ZVAD-FMK): could be prevented

poly(I:C)
IFN-β transcription (IFN-β gene; HeLa and SL1 cells, poly(I:C) alone): induced | induction of IFN-β mRNA (IFN-β gene; Huh7, GS4.1 and other Huh7-derived cells, primed with IFN-α then transfected with poly(I:C)): only a weak induction of IFN-β was observed | eIF-2α-P levels (eIF-2α): augmented eIF-2α-P levels
